Legend:
MC4 receptor (MC4R) = biological target: T1, MC4 receptor (MC4R) (Homo sapiens, UniProt P32245); assay: AGRP inhibition: competition binding vs [125I]AGRP(87-132) at CHO-CRE MC4R cell membranes; details: vs 0.3 nM [125I]AGRP(87-132)
T1 construct: expressed in transfected cells; host or cells: CHO-CRE MC4R cells (membranes)
From the text: Agouti related protein (AGRP) is a high affinity endogenous antagonist/inverse agonist for the MC4 receptor (Lu et al., 1994, Nature 371: 799-802; Oilman et al., 1997, Science 278: 135-138). […] It has been ascertained that this C-terminal fragment of AGRP contains the MC4R binding determinants (Yang et al., 1999, Mol Endocrinol 13: 148-155), therefore, compounds can be evaluated for their ability to inhibit AGRP binding to membranes from cells expressing the MC4R using a competition binding assay versus [^125I]AGRP(87-132). To this end cells expressing the MC4R were subject to homogenisation and the membrane fragment isolated by differential centrifugation. CHO-CRE MC4R cell membranes (12 μg protein) were incubated with 0.3 nM [^125I]AGRP(87-132) and 11 half-log concentrations of competitor ligand, in duplicate, in a total volume of 100 μl buffer (25 mM HEPES, 1 mM MgCl2, 2.5 mM CaCl2, 0.5% BSA pH 7.0). Non-specific binding was determined by the inclusion of 1 μM SHU9119. The reaction was initiated by the addition of membranes and plates were incubated at room temperature for 2 hours. The reaction was terminated by rapid filtration onto GF/C filters (presoaked in 1% PEI) using a vacuum harvester followed by five 200 μl washes of ice cold wash buffer (Binding buffer containing 500 mM NaCl). The filters were soaked in 50 μl scintillation fluid and the amount of radioactivity present was determined by liquid scintillation counting. Ki values were determined by data analysis using appropriate software.

[1] = In vitro metabolism rate determination, rat liver microsome (RLM) assay; format: in vitro ADME; details: rat liver microsomes, substrate 1 μM; read-out: RLM (intrinsic clearance)
From the text: In vitro Metabolism Rate Determination (Human Liver Microsome (HLM); Rat Liver Microsome (RLM) Assay)
Many drugs are metabolised by the cytochrome P450 mono-oxygenase system. This enzyme is found in high concentrations in the liver and is bound to the endoplasmic reticulum of the hepatocyte. The enzyme system can be obtained in semi-purified state by the preparation of the hepatic microsomal fractions. Determining a compound's in vitro half-life in such a system provides a useful indicator of metabolic stability.
Methodology For In Vitro Rate Determination Using Hepatic & Supermix Microsomes
The method outlined below is for a total incubation volume of 1.5 ml.
1. The following mixture is prepared in a test tube:
2. Defrost microsomes at room temperature and add sufficient microsomes to give a final concentration of 0.5 nmol cytochrome P450/ml of incubation e.g. for a 1.5 ml incubation, the volume of microsomes to be added is:
[formula] 3. Add sufficient MilliQ water to give a total incubation volume of 1.425 ml. 4. Remove 237.5 μl of incubation mix and place in test tube for PNA positive control. Add 2.5 μl of PNA solution, whirlimix, and put tube into a rack in the thermostatically controlled shaking water bath 5. Remove 100 μl for no substrate control and dispense in test tube. Place test tube in a rack in the thermostatically controlled shaking water bath. 6. Add substrate to the incubation. The substrate should be at an initial concentration of 1 μM. The volume of substrate required in the remaining 1.162.5 ml incubation is calculated as follows:
[formula] • N.B. The volume of organic solvent added should not exceed 0.1% of the total incubation volume. 7. Remove 100 μl of incubation mix into test tube for no cofactor control. Whirlimix and put into a rack in the thermostatically controlled shaking water bath. 8. Pre-incubate the tube containing the incubation mix, also positive control and no cofactor tubes in the thermostatically controlled shaking water bath set at 37° C. for approx 5 min. 9. Add NADP to initiate reaction (75 μl to each 1.162.5 ml incubation mix, 12.5 μl to positive control tube and 5 μl to no substrate tube) and take first time point immediately. The PNA positive control, no cofactor control and no substrate tubes are incubated for the total incubation time. 10. Remove 100 μl aliquots up to 9 different sampling points from 0 to 60 min (usually 0, 3, 5, 10, 15, 20, 30, 45 & 60 min) and terminate reaction. Longer incubation times can be used, but, after 120 min the microsomes deteriorate. The reaction may be terminated by addition of organic solvent, acid or base. At the end of the incubation process the no cofactor and no substrate controls in a similar manner i.e. terminate with the same reagent. 11. PNA Positive Control Procedure: • After the final sample has been taken, remove the positive control and add 1 ml 20% TCA to this tube. Also prepare a tube containing 250 μl of a PNP standard at 50 μM, and add 1 ml 20% TCA. Whirlimix both tubes and leave for approx 5 min to allow the protein to precipitate. • Centrifuge both tubes for approx 5 min in an instrument set at 3500 rpm. Remove 1 ml of supernatant and place into clean test tubes, discard the remainder. • Add 1 ml 10M NaOH to the supernatant, whirlimix, and leave to stand for approx min. Blank spectrophotometer with distilled water at 400 nm then measure absorbance of the PNP standard against distilled water. The microsomal 4-nitroanisole O-demethylase activity is calculated as follows: Calculation of Results
[formula] • The activity value from the incubation MUST be equal to or greater than 85% of the mean value of the batch used for the incubation to be valid. If this criteria is not met, then the incubation must be repeated. 11. Analyse samples (including no cofactor and no substrate control) by a specific assay for the substrate to determine the disappearance kinetics. Analysis Of Data […]

T1 sequence (P32245 whole entry): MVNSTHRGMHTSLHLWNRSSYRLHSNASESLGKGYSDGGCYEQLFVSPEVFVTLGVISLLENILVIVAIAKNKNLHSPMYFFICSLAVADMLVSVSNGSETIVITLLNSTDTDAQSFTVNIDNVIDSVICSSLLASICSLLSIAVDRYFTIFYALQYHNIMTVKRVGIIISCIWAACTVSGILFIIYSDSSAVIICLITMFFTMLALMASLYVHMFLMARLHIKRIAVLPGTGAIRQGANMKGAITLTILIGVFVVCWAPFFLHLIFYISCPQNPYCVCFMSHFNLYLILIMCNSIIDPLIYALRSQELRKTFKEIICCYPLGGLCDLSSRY

Row | SMILES | Ki (MC4 receptor (MC4R)) [nM] | microsomal CLint at 1 μM [1] [µL/min/mg]
1 | C[C@@H]1CN(C(=O)[C@@H]2CN(c3ccc(Cl)nn3)C[C@H]2c2ccc(Cl)cn2)C[C@H](C)[C@@]1(O)c1ccccn1 [Example 31] | 526 | 292
2 | C[C@@H]1CN(C(=O)[C@@H]2CN(c3ccc(Cl)nn3)C[C@H]2c2ccc(F)cn2)C[C@H](C)[C@@]1(O)c1ccccc1 [Example 35] | 386 | 92
3 | CC1CN(C(=O)C2CN(c3ccc(=O)[nH]n3)CC2c2ccc(F)cn2)CC(C)C1(O)c1ccccc1 (stereo not shown) [Example 37] | 422 | 23
4 | CC1CN(C(=O)C2CN(c3ccc(=O)n(C)n3)CC2c2ccc(F)cn2)CC(C)C1(O)c1ccccc1 (stereo not shown) [Example 39] | 751 | 58
5 | CC1CN(C(=O)C2CN(c3ccc(=O)n(C)n3)CC2c2ccc(F)cn2)CC(C)C1(O)c1ccc(F)cc1 (stereo not shown) [Example 40] | 430 | < 8.5
6 | COc1ccc([C@@H]2CN(c3ccc(=O)[nH]n3)C[C@H]2C(=O)N2C[C@@H](C)[C@](O)(c3ccc(Cl)cn3)[C@@H](C)C2)nc1 [Example 41] | 3750 | 30
7 | COc1ccc(C2CN(c3ccc(=O)[nH]n3)CC2C(=O)N2CC(C)C(O)(c3ccc(F)cc3)C(C)C2)nc1 (stereo not shown) [Example 42] | 888 | 25

Now those with a lower Ki (MC4 receptor (MC4R)), led by results:

Row | Ki (MC4 receptor (MC4R)) [nM] | microsomal CLint at 1 μM [1] [µL/min/mg] | SMILES
8 | 160 | < 8.5 | C[C@@H]1CN(C(=O)[C@@H]2CN(c3ccc(C#N)nn3)C[C@H]2c2ccc(F)cn2)C[C@H](C)[C@@]1(O)c1ccc(Cl)cc1 [Example 32]
9 | 220 | 72 | CC1CN(C(=O)C2CN(c3ccc(C#N)nn3)CC2c2ccc(F)cn2)CC(C)C1(O)c1ccccc1 (stereo not shown) [Example 33]
10 | 251 | < 8.5 | CC1CN(C(=O)C2CN(c3ccc(C#N)cn3)CC2c2ccc(C#N)cn2)CC(C)C1(O)c1ccc(F)cc1 (stereo not shown) [Example 45]
11 | 134 | < 8.5 | C[C@@H]1CN(C(=O)[C@@H]2CN(c3ccc(C#N)nn3)C[C@H]2c2ccc(C#N)cn2)C[C@H](C)[C@@]1(O)c1ccc(F)cc1 [Example 46]
